Marks after values point to notes of the source that are not given here.
Test system: filaggrin expression in normal human keratinocytes (NHEKs)
Experiment: Filaggrin expression in normal human keratinocytes in culture (in situ immunolabelling, fluorescence relative to number of nuclei)
Type: cell-based
Details: for filaggrin expression, % relative to the control / change in expression of filaggrin by the keratinocytes relative to the control: NHEKs; for filaggrin expression, % relative to the control: 144 hours incubation, n=3, control complete SFM medium = 100; for change in expression of filaggrin by the keratinocytes relative to the control: 144 hours
Protocol: The in vitro effect of gingerone (compound 1, the chemical formula of which is given above) on keratinocyte differentiation is studied. The expression and the location of the marker of filaggrin differentiation are especially studied in keratinocytes in culture which thus makes it possible to evaluate the capacity of this compound to increase the differentiation of these cells. Normal human keratinocytes (NHEKs) were cultured at 37° C. and 5% CO2 for 24 h in a complete SFM medium until moderate confluence was obtained. A complete SFM medium is an SFM culture medium supplemented with pituitary extract (25 μg/ml), EGF (0.25 ng/ml) and gentamicin (25 μg/ml). […] The keratinocytes were then incubated for 144 hours. The treatments were carried out in triplicate (n=3). At the end of the incubation, the culture medium was removed and the cells were […], fixed, permeabilized then labelled with the primary antibody targeted against the filaggrin protein of interest (in situ immunolabelling). […] At the same time, the nuclei of the cells were stained with Hoechst 33258 (bisbenzimide). Image acquisition was carried out using an INCell AnalyzerTM1000 machine. The labels were quantified by measuring the fluorescence intensity of the proteins relative to the number of nuclei identified by the Hoechst product.

[Ca+2].[Cl-].[Cl-] [CaCl2, calcium chloride, reference compound]
filaggrin expression, % relative to the control (1.5 mM): 158** % | change in expression of filaggrin by the keratinocytes relative to the control (calcium chloride treatment (1.5 mM in Table 1)): +58%

COc1cc(CCC(C)=O)ccc1O [Gingerone]
change in expression of filaggrin by the keratinocytes relative to the control (2 μg/ml): +33% | filaggrin expression, % relative to the control (2 μg/ml): 133* % | change in expression of filaggrin by the keratinocytes relative to the control (20 μg/ml): +51% | filaggrin expression, % relative to the control (20 μg/ml): 151* % | effect on expression of the filaggrin protein (in words) (normal human epidermal keratinocytes): significantly and dose-dependently increases the expression of the filaggrin protein

CC1=C(/C=C/C(C)=C/C=C/C(C)=C/C(=O)O)C(C)(C)CCC1 [Retinoic acid, retinoic acid, reference compound]
filaggrin expression, % relative to the control (10^−7 M): 3** % | change in expression of filaggrin by the keratinocytes relative to the control (retinoic acid treatment (10^−7 M in Table 1)): −97%
